Non-standard residues stand in square brackets, D forms with d. No end group written: not given here. pS = N[C@@H](COP(=O)(O)O)C(=O)O
What was measured:
[1] = tested on: anti-NF—H antibodies; assay: ELISA comparison of AD and NC sera with peptides; separation algorithms and grouping of peptides into FACTs; type: binding, human; settings: single peptide
Procedure: A Streptavidin stock solution (2 mg/ml Streptavidin prepared in purified water, aliquoted, and stored at −20° C.) was diluted 1:400 in ddH2O and a 100 μl aliquot was added to each well of a multiwell plate (96 well C-shaped microplates). The plates were incubated at 37° C. overnight until the liquid was entirely evaporated and stored until use at 4° C. in plastic bags containing a desiccating material. Such coated plates retained their activity for at least few days. The plates were washed 4 times by immersing in TBST. 200 μl of blocking solution were added to each of the wells. The plates were then incubated for 1 hour at room temperature. 100 μl of the biotinylated peptide (1 μg/ml in TBST) were added to each of the wells with the exception of the control wells. The plates were then incubated for 1 hour at room temperature.
Following incubation, the plates were washed in TBST 4 times as above. A 100 μl aliquot of serum which was diluted in a dilution buffer was added to each well and the plates were incubated for 1 hour at room temperature.
Following this incubation the wells were washed in TBST 4 times as above. A 100 μl aliquot of a secondary antibody (Goat anti-human IgG Horse radish peroxidase conjugate) which was diluted 1:2000 in dilution buffer was added to each well and the plates were incubated for 1 hour at room temperature.
The wells were then washed in TBST 4 times as above followed by two washes in TBS (TBST w/o Tween-20).
A 100 μl aliquot of the substrate solution was added to each well and the plates were incubated at room temperature.
OD was measured at 450 nm and 620 nm every minute over a period of 10-15 minutes.
Employing the above optimized parameters, eight AD and eight NC sera were analyzed using peptide 3M (SEQ ID NO:31). The experiment was repeated over a period of four days, employing four different plates each day. Two plates were preblocked with Gelatin, while two were not. In one experiment chloroform treated serum was analyzed on two additional plates. Three AD sera consistently gave rise to high signals in all experiments. One AD serum caused high signals in 10 out of the 13 plates and four AD sera were consistently negative. One NC sera caused high signals in some of the plates in the experiments conducted on all four days. Two additional NC sera gave rise to high signals in some of the plates in the experiments conducted on three of the four days. […] The reproducibility of the experiments was assessed by averaging the rank-order numbers of each sample in every experiment (Table 3). […]
A series of experiments were performed in which 48 AD and 48 NC were analyzed by the use of 17 different peptides (INO; 2L; 2LR; 3NO; 3L; 3M; 3R; 3LM; 3LR; 4LM; 4MR; 4LMR; 5LM; 6LR; 7MR; 8LMR and 8LMR-V). […]

[2] = tested on: anti-NF—H antibodies; assay: Streptavidin-biotin ELISA: serum IgG binding to biotinylated NF-H peptide (protocol optimisation, pooled AD serum); parameters: species or system human; settings: serum pooled from 10 AD patients; streptavidin plates blocked or not blocked; FIG. 1
Procedure: Solutions and Materials: Tris Buffered Saline (TBS): 50 mM Tris-HCl, pH 7.4 (Tris (Sigma, T-1378); HCl (Merck 1.00319.1000)) 200 mM NaCl (Merck, 1.06404.1000). TBST: 0.05% (w/v) Tween-20 (Sigma, P-7949) in TBS. Phosphate Buffered Saline (PBS): 0.1 M phosphate buffer, pH 7.2 (Sodium phosphate, monobasic (Sigma. S-8182) and Sodium phosphate, dibasic (Sigma, S-7907)). 200 mM NaCl (Merck, 1.06404.1000). PBST: 0.05% (w/v) Tween-20 (Sigma, P-7949) in PBS. Dilution/Blocking buffer: 0.5% Gelatin (Difco, 0143-17-9) in TBST. Streptavidin stock solution: 2 mg/ml Streptavidin (Sigma, S4762) in purified water. Aliquoted and kept at −20° C., this solution is stable indefinitely. Multiwell Plates: Nunc Maxisorp (Cat. No. 442404) 96 well C-shaped microplates. Secondary antibody: Goat anti-human IgG Horse radish peroxidase conjugate (Jackson, 109-035-088). Substrate solution: 1 mg/ml OPD (Sigma, P-8412)+0.005% H2O2 (Merck, 1.07210.0250) in […] Sodium Citrate buffer, pH 5 (Merck, 1.00 244.1000).
A Streptavidin stock solution (2 mg/ml Streptavidin prepared in purified water, aliquoted, and stored at −20° C.) was diluted 1:400 in ddH2O and a 100 μl aliquot was added to each well of a multiwell plate (96 well C-shaped microplates). […]
OD was measured at 450 nm and 620 nm every minute over a period of 10-15 minutes. […]

With “A K S P A E A K S(PO3H) P V K E E A K S P-OH (AKSPAEAK[pS]PVKEEAKSP-OH; N-terminus assumed; SMILES CC(C)[C@H](NC(=O)[C@@H]1CCCN1C(=O)[C@H](COP(=O)(O)O)NC(=O)[C@H](CCCCN)NC(=O)[C@H](C)NC(=O)[C@H](CCC(=O)O)NC(=O)[C@H](C)NC(=O)[C@@H]1CCCN1C(=O)[C@H](CO)NC(=O)[C@H](CCCCN)NC(=O)[C@H](C)N)C(=O)N[C@@H](CCCCN)C(=O)N[C@@H](CCC(=O)O)C(=O)N[C@@H](CCC(=O)O)C(=O)N[C@@H](C)C(=O)N[C@@H](CCCCN)C(=O)N[C@@H](CO)C(=O)N1CCC[C@H]1C(=O)O) [3M]” the sensitivity ([1]; eight AD and eight NC samples) was 50%, the specificity ([1]; eight AD and eight NC samples) was 87% and the AD cases detected ([1]; eight AD and eight NC sera, pre-blocked plates) was “four out of eight”. For the same sequence, the false positive signal ([1]; eight AD and eight NC sera, pre-blocked plates (sample No. 485)) was “one” and the “saturating concentration of the peptide” value [2] was 0.4 to 0.8 µg/mL.
